Earlier results in patent US10286065B2 (priority 2014, dated 2019).

## CCC(=O)O[C@]1(C(=O)SCF)[C@H](C)C[C@H]2[C@@H]3C[C@H](F)C4=CC(=O)C=C[C@]4(C)[C@@]3(F)[C@@H](O)C[C@@]21C [Fluticasone propionate]
Dimethyl sulfoxide and dimethylformamide
  solubility in dimethyl sulfoxide and dimethylformamide: freely soluble
Methanol and 95% ethanol
  solubility in methanol and 95% ethanol: slightly soluble
water
  solubility in water: practically insoluble
